The text below walks through data of ChEMBL document CHEMBL1201862, “PubChem BioAssay data set” (2004).

Each structure is given as a SMILES string. The source made the active and inactive calls.

For assay [1], the target named is Serine/threonine-protein phosphatase PP1-alpha catalytic subunit (Homo sapiens, UniProt P62136). The experiment in a line: inhibition of protein phosphatase 1 activity – biochemical, fluorescence, dose response (AID 2403).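 Further: phosphatase turnover of OMFP into fluorescent 3-O-methylfluorescein.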
The target of assay [2] is Serine/threonine-protein phosphatase (Homo sapiens, UniProt Q9BPW0). The experiment in a line: Counterscreen for inhibitors of PP1: fluorescence-based biochemical high throughput dose response assay to identify inhibitors of Protein Phosphatase 5 (PP5). [Related pubchem assays: 2034 (Summary (PP5 inhibitors)), 1987 (PP5 inhibitors in singlate), 2235 (PP1 inhibitors in singlate)]. (In general: A counterscreen serves to expose hits that act by an unwanted route or on another target.)

Assay [3] concerns the target T1, Heat shock factor protein 1 (Mus musculus, UniProt P38532).
T1 sequence (P38532 whole entry): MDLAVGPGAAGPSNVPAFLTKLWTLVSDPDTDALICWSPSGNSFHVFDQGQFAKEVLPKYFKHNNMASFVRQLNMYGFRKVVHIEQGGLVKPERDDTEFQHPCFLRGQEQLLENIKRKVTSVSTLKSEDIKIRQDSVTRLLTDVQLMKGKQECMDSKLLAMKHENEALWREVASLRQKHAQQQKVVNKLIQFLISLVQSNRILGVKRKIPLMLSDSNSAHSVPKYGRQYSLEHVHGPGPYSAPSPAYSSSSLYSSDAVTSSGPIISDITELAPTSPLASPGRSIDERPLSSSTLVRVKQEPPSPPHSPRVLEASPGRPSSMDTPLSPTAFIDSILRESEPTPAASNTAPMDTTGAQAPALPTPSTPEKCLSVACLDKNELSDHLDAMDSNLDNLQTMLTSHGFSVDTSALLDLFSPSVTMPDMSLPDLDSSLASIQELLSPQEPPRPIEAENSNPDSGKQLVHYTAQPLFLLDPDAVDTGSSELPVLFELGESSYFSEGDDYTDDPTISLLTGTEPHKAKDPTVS
The experiment in a line: enhancement of HSF1-driven luciferase signal – cell-based, NIH3T3, luminescence, dose retest, confirmation (AID 435004).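 Further: stress induced by proteasome inhibitor MG132 added 30 min after compound; luciferase reporter driven by HSF1 response element in NIH3T3 cells; actives raise luminescence as potentiators of the MG132 stress response.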 Type of assay: functional.

The nature of assay [4]: mitochondrial function rescue without frataxin homolog – Friedreich's ataxia, plus single-dose screen, dose response (AID 1465).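 Further: yeast depleted of Yfh1p frataxin homolog grown on glycerol needing respiration; WST-1 tetrazolium dye reduction as measure of cellular dehydrogenase metabolic activity.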 Type of assay: functional.
In assay [5] the target is T2, Microphthalmia-associated transcription factor (Homo sapiens, UniProt O75030).
T2 sequence (O75030 whole entry): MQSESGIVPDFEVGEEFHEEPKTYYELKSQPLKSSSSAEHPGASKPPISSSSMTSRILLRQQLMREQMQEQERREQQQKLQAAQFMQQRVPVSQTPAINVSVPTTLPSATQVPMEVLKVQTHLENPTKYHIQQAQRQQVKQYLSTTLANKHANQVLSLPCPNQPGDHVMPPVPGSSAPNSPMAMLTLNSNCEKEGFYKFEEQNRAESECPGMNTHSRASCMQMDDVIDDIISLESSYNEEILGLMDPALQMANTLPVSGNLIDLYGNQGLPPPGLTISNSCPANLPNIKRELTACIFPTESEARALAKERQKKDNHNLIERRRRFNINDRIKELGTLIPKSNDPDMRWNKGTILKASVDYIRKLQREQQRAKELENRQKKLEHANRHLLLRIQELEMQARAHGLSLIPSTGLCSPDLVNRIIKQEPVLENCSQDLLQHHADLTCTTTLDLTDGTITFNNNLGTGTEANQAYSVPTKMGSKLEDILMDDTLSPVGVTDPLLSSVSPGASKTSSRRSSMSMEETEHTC
The experiment in a line: reducers of TRPM1 reporter luminescence, concentration series – cell-based, SK-MEL-5, cherry-picked, set 3, MITF inhibitor project, dose response (AID 493073).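 Further: SK-MEL-5 melanoma cells with luciferase driven by the MITF target TRPM1 promoter.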 Type of assay: functional.

In assay [6] the test system is HEK293. The assay is described as follows: Fluorescence-based counterscreen for potentiators or agonists of NPY-Y1: cell-based high-throughput dose response assay for inhibitors of cyclic nucleotide gated ion channel (CNGC) activity. In this assay, the parental HEK293 cell line transfected with a cyclic-nucleotide gated ion channel (CNGC)-based cAMP sensor is used to measure inhibition of isoproterenol-induced CNGC …. Type of assay: functional. To be noted: Homo sapiens.

The target of assay [7] is Neuropeptide Y receptor type 2 (Homo sapiens, UniProt P49146). The assay is described as follows: Fluorescence-based counterscreen for agonists of NPY-Y1: cell-based high-throughput dose response assay for agonists of NPY-Y2. Type of assay: functional.
Assay [8] has as its target Neuropeptide Y receptor type 1 (Homo sapiens, UniProt P25929). The assay is described as follows: Fluorescence-based dose response cell-based high-throughput screening assay for agonists of NPY-Y1. [Related pubchem assays: 1697 (Screening assay (NPY-Y1 agonists).), 1359 (Screening assay (NPY-Y2 potentiators or agonists).), 1304 (Screening assay (NPY-Y1 potentiators or agonists).), 1704 (Screening assay (CNGC inhibitors).), 1791 (Summary AID.)]. Type of assay: functional.

One may read the IC50 as the concentration at which inhibition is half-maximal. By EC50 is commonly meant the concentration at which the effect is half-maximal. The term AC50 denotes the concentration giving half of the maximal activity seen.

Sequence of Serine/threonine-protein phosphatase PP1-alpha catalytic subunit (P62136 whole entry): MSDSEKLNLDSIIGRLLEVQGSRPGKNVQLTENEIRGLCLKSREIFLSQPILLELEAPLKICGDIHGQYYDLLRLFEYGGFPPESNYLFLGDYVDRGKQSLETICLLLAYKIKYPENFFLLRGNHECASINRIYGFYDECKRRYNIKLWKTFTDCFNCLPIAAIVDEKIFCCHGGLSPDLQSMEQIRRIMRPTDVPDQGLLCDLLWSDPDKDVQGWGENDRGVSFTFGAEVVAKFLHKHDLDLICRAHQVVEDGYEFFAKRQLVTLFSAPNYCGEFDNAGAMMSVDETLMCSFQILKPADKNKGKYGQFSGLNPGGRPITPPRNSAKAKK
Sequence of Neuropeptide Y receptor type 1 (P25929 whole entry): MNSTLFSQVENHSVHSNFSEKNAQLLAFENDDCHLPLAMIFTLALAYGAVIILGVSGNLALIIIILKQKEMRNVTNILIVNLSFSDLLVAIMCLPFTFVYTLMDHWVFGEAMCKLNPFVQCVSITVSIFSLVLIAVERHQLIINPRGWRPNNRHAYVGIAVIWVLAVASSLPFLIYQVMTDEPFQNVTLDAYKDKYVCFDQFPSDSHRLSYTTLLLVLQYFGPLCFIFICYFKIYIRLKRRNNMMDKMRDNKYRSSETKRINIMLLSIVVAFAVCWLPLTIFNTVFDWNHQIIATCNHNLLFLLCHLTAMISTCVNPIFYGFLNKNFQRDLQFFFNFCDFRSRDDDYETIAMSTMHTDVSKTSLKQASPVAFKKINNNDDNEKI
Sequence of Serine/threonine-protein phosphatase (Q9BPW0 whole entry): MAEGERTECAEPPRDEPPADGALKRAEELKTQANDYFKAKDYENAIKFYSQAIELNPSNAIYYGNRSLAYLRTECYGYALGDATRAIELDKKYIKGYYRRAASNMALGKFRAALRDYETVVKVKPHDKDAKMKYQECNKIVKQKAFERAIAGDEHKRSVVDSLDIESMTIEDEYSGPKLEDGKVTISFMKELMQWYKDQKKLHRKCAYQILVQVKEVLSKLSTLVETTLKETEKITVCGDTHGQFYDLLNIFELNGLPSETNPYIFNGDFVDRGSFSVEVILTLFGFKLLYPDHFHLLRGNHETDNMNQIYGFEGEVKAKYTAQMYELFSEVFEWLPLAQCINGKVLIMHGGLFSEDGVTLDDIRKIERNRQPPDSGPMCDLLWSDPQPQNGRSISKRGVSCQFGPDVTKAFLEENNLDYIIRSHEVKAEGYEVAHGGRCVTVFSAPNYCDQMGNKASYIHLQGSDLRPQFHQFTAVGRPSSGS
Sequence of Neuropeptide Y receptor type 2 (P49146 whole entry): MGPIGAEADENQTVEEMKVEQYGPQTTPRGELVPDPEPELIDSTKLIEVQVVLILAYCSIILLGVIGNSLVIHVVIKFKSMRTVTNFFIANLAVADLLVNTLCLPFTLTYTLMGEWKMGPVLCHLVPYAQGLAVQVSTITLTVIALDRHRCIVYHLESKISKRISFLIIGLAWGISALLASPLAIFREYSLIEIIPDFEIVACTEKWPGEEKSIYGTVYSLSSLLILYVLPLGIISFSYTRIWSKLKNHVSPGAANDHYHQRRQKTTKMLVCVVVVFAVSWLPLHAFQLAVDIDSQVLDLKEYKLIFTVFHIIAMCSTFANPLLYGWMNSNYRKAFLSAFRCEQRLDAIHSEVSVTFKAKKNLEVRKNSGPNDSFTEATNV

Regarding `COc1cnc(-c2ccccn2)nc1Sc1ccc(F)cc1`, the IC50 was 7.21 µM (active) in assay [1] and > 67 µM (not active) in assay [2].

On to `CC1=C(C#N)C(=O)N(CCO)C(=O)/C1=N/Nc1ccc2c(c1)COC2=O`, for which the values for the EC50 in assay [3] and in assay [4] were 9.38 µM (active) and > 100 µM (active), respectively. In addition, the AC50 in assay [5] was 9.69 µM (active).

As to `CN(C)Cc1c(O)ccc2oc(Cc3ccccc3)cc12`, the half-maximal inhibitory concentration (IC50) in assay [6] is listed as > 35.4 µM (not active). Besides, the EC50 is > 35.4 µM (not active) in assay [7] and 14.7 µM (not active) in assay [8].
